This note sets out measurements from US20260109714A1, “PYRIMIDINE-FUSED RING COMPOUND, AND PREPARATION METHOD THEREFOR AND USE THEREOF” (GENFLEET THERAPEUTICS (SHANGHAI) INC., priority 2022, published 2026).

As a reminder, the AUC(0-t) is the area under the concentration-time curve up to a stated or last time point. A higher AUC(0-t) goes with more exposure. A word on the bioavailability: it is the share of a dose that reaches the circulation, judged against a reference dose that is usually intravenous. For orientation: IC50 means the concentration that inhibits the measured activity by half.

The nature of series [1]: Pharmacokinetic evaluation test in mice. Particulars: male, CD-1, mouse, plasma, po, 10 mg/kg.
Description: Test objective: Male CD-1 mice were used as test animals. The drug concentrations in plasma of mice at various times were determined by LC/MS/MS after intravenous and oral administration of the test compounds. The pharmacokinetic behavior of the test compounds in mice was studied and their pharmacokinetic characteristics were evaluated.
Test methods: test animals: 60 healthy adult male CD-1 mice, aged 6-8 weeks and weighing about 30 g, and divided into 10 groups, including IV groups (intravenous injection group, five groups), with 6 mice in each group; and PO groups (oral administration group, five groups), with 6 mice in each group.
Preparation of drug solution: IV group: Taking 10 mL sample solution as an example, 2 mg sample was weighed, 0.5 mL DMSO and 1 mL Solutol HS 15 were sequentially added, and then 8.5 mL 6% HP-β-CD was added, and stirred ultrasonically to obtain a clear solution of 0.2 mg/mL.
PO group 1: Taking 10 mL sample solution as an example, 10 mg sample was weighed, 0.5 mL DMSO and 1 mL Solutol HS 15 were sequentially added, and then 8.5 mL 6% HP-β-CD was added, and stirred ultrasonically to obtain a 1 mg/mL solution.
PO group 2: A 3 mg/mL solution of the sample was prepared according to the preparation method for PO group 1.
Administration: After overnight fasting, the mice in the IV group were administered with a volume of 5 mL/kg at a dose of 1 mg/kg.
PO group 1: The mice were administered with a volume of 10 mL/kg at a dose of 10 mg/kg.
PO group 2: The mice were administered with a volume of 10 mL/kg at a dose of 30 mg/kg.
Experimental operations: Male CD-1 mice in the intravenous injection group and oral administration group were given the test compound, respectively. After that, 50 μl of blood was periodically collected into a K2EDTA anticoagulation tube at 0.0833, 0.25, 0.5, 1, 2, 4, 6, 8 and 24 hrs, and the plasma was separated by centrifugation at 4° C. and 8000 rpm for 15 min. The plasma was stored in dry ice at −80° C. 4 hrs after administration, the animals were allowed to free access to food. The contents of the test compounds in plasma of mice after intravenous and oral administration were determined by LC/MS/MS. The linear range of the method was 1-3000 ng/ml. The plasma samples were treated with acetonitrile to precipitate the protein and then analyzed.
The subject of series [2] is AGS human gastric cancer cell line with KRAS G12D mutation. In words: Cell proliferation inhibition experiment, 3D CellTiter-Glo, AGS. Type of series: cell-based. Particulars: AGS cells, 3D spheroid, 5 days. An excerpt:
(§1) AsPC-1 was purchased from ATCC, Article No.: CRL-1682; AGS was purchased from ATCC, Article No.: CRL-1739; RPMI1640 was purchased from Gibco, Article No.: 11875-093 2235123; F12K was purchased from Gibco, Article No.: 21127-022; FBS was purchased from Gibco, Article No.: 10099-141C; the trypsin (containing EDTA) was purchased from Gibco, Article No.: 25200-072; CellTiter Glo-3D was purchased from Progema, Article No.: G9683; the 384-well spheroid plate was purchased from Corning, Article No.: 3830; the white-bottom opaque 384-well plate was purchased from Corning, Article No.: 3570; the cell counter was purchased from CHEMOMETEC, model: NC-200; the microplate reader was purchased from PerkinElmer, model: Envison;
(§2) AsPC-1, an endogenous human pancreatic cancer cell AsPC-1 with KRAS^G12D mutation, was cultured in RPMI-1640 medium containing 10% FBS. AGS, a human gastric cancer cell line with KRAS^G12D mutation, was cultured in F-12K medium containing 10% FBS. Cells in logarithmic growth period were digested with trypsin (containing EDTA), collected and counted. 800 AsPC-1 cells/well or 400 […] were inoculated in a 384-well spheroid plate, and cultured overnight in an incubator with 5% CO2 to establish a 3D cell model. 1000× compound stock solutions with gradient concentrations of 3.16 times were prepared with DMSO, and 100-fold diluted to 10× compound stock solutions with the culture medium. The 10× compound stock solution was added to each cell culture well on the second day after cell inoculation, to give a final concentration of 1× and DMSO content of 0.1%. DMSO was used as the control, and the culture medium was used as the blank. After the compound was added, the cells were cultured for 5 days. 30 μl CellTiter-Glo working solution was added to each well, and mixed uniformly. The cells were incubated for 30 min, and allowed to stand at room temperature for 30 min. 40 μl of the mixture was transferred to a white-bottom opaque 384-well plate, and the luminescence was read on a microplate reader. The inhibition rate on cell proliferation was calculated by a formula: IR (%)=(RLU of control−RLU of compound)/(RLU of control−RLU of blank)×100%. The gradient concentrations of the compound and the corresponding inhibition rates were fitted by using XLFit four-parameter method, and the IC50 value was calculated. […] The results of some exemplary compounds are shown in Table 2 below (—means not tested).

The test system of another series is AGS p-ERK. Briefly: Cell assay for p-ERK (HTRF, Advance ERK phospho-T202/Y204 kit). Type of series: cell-based, human. The following applies: AGS cells (KRAS G12D), 3 hrs with compound, inhibition of p-ERK level. Here is the method: AGS was purchased from ATCC, Article No.: CRL-1739; F12K was purchased from Gibco, Article No.: 21127-022; FBS was purchased from Gibco, Article No.: 10099-141C; the trypsin (containing EDTA) was purchased from Gibco, Article No.: 25200-072; DMSO was purchased from VWRAMRESCO, Article No.: 0231-500ML; the 96-well cell culture plate was purchased from Corning, Article No.: 3599; the white-bottom opaque 96-well plate was purchased from Cisbio, Article No.: 66PL96025; Advance ERK phospho-T202/Y204 kit was purchased from Cisbio, Article No.: 64AERPEH; the cell counter was purchased from CHEMOMETEC, model: NC-200; the microplate reader was purchased from PerkinElmer, model: Envison.
AGS, an endogenous human gastric adenocarcinoma cell line with KRAS^G12D mutation, was cultured in F12K+10% FBS medium. On the first day of the experiment, cells in logarithmic growth period were digested with trypsin (containing EDTA), collected and counted, and about 20,000 cells/well were inoculated in a 96-well cell culture plate and cultured overnight in an incubator with 5% CO2. 1000× compound stock solutions with gradient concentrations of 3.16 times were prepared with DMSO, and 200-fold diluted to 5× compound stock solutions with the above culture medium. The 5× compound stock solution was added to each cell culture well on the second day after cell inoculation, to give a final concentration of 1× and DMSO content of 0.1%. DMSO was used as experimental control. After adding the compound, the cells were continuously cultured for 3 hrs. Then, the culture medium in the well was removed, and 50 μl/well of cell lysis buffer (from Advanced ERK phospho-T202/Y204 kit, the same hereinafter) was added, and mixed uniformly. The cells were cultured for 30 min. Then 16 μl of the mixture was transferred to a white-bottom opaque 96-well plate, and 16 μl of the cell lysis buffer was added to an additional well and used as a blank. After that, 4 μl of p-ERK HTRF antibody mixed solution (from Advanced ERK Phos Pho-T202/Y204 Kit) was added to each well. After incubation for 4 hrs, the fluorescence value (RLU) of HTRF was read on a microplate reader. The inhibition rate of the compound on p-ERK level was calculated by the formula IR (%)=(RLU of control−RLU of compound)/(RLU of control−RLU of blank)×100%. The compound concentration and the corresponding inhibition rate on p-ERK level in the cells were fitted by using Prism 8 four-parameter method, and the IC50 value was calculated.
In general terms: Time-resolved FRET reads energy transfer from a long-lived donor to a nearby acceptor.

Series [3] deals with AsPC-1 human pancreatic cancer cell with KRAS G12D mutation. Briefly: Cell proliferation inhibition experiment, 3D CellTiter-Glo, AsPC-1. It is filed as cell-based. The following applies: AsPC-1 cells, 3D spheroid, 5 days.
Description: as §1, §2
In general terms: ATP-based viability assays read luminescence as a measure of living cells.

In the case of `CCc1cccc2cc(O)cc(-c3nc4c5c(nc(OC[C@@]67CCCN6C[C@H](F)C7)nc5c3F)N3C[C@H]5CC[C@H](N5)[C@H]3CO4)c12` [Z140-1, 5-ethyl-4-((5aS,6S,9R)-1-fluoro-12-(((2R,7aS s)-2-fluorotetrahydro-1H-pyrrolizin-7a(5H)-yl)methoxy)-5a,6,7,8,9,10-hexahydro-5H-4-oxa-3,10a,11,13,14-pentaaza-6,9-methanonaphtho[1,8-ab]hepten-2-yl)naphthalen-2-ol], in series [1], the AUC(0-t) was found to be 42.1 ng·h/mL and the bioavailability amounted to 2.33%.

In the case of `C#Cc1c(F)ccc2cccc(-c3nc4c5c(nc(OC[C@@]67CCCN6CCC7=C)nc5c3F)N3C[C@H]5CC[C@H](N5)[C@H]3[C@H](C)O4)c12` [Z638, (5S,5aS,6S,9R)-2-(8-ethynyl-7-fluoronaphthalen-1-yl)-1-fluoro-5-methyl-12-(((S)-1-methylenetetrahydro-1H-pyrrolizin-7a(5H)-yl)methoxy)-5a,6,7,8,9,10-hexahydro-5H-4-oxa-3,10a,11,13,14-pentaaza-6,9-methanonaphtho[1,8-ab]heptene], the IC50 turned out to be 19.7 nM in series [2], 7.79 nM in the series with AGS p-ERK and 32 nM in series [3].

On to `C#Cc1cccc2cc(N)cc(-c3nc4c5c(nc(OCC67CC(F)(F)CN6CC=C7C)nc5c3F)N3C[C@H]5CC[C@H](N5)[C@H]3[C@H](C)O4)c12` (some centres unmarked) [Z748], for which the IC50 was 23.1 nM in series [2] (Homo sapiens, 120 h); 4.63 nM in the series with AGS p-ERK (Homo sapiens); 12.9 nM in series [3] (Homo sapiens, ASPC1, 120 h).

In the case of `C[C@@H]1Oc2nc(-c3cc(N)cc4ccc(F)c(F)c34)c(F)c3nc(OC[C@]45CCCN4CC(F)(F)C5)nc(c23)N2C[C@H]3CC[C@H](N3)[C@@H]12` [Z740, 4-((5S,5aS,6S,9R)-12-(((R)-2,2-difluorotetrahydro-1H-pyrrolizin-7a(5H)-yl)methoxy)-1-fluoro-5-methyl-5a,6,7,8,9,10-hexahydro-5H-4-oxa-3,10a,11,13,14-pentaaza-6,9-methanonaphtho[1,8-ab]heptan-2-yl)-5,6-difluoronaphthalen-2-amine], the IC50 in series [2] (Homo sapiens, 120 h) was 18 nM; in the series on AGS p-ERK (Homo sapiens), 6.08 nM; in series [3] (Homo sapiens, ASPC1, 120 h), 26 nM.

In the case of `C#Cc1cccc2cc(N)c(F)c(-c3nc4c5c(nc(OCC6(CN7CCOCC7)CC6)nc5c3F)N3C[C@H]5CC[C@H](N5)[C@H]3[C@H](C)O4)c12` [Z957, 5-ethynyl-3-fluoro-4-((5S,5aS,6S,9R)-1-fluoro-5-methyl-12-((1-(morpholinemethyl)cyclopropyl)methoxy)-5a,6,7,8,9,10-hexahydro-5H-4-oxa-3,10a,11,13,14-pentaaza-6,9-methanonaphtho[1,8-ab]hepten-2-yl)naphthalen-2-amine], the IC50 came out at 7.61 nM in series [2] (Homo sapiens, 120 h); 0.97 nM with AGS p-ERK (Homo sapiens); 6.51 nM in series [3] (Homo sapiens, ASPC1, 120 h).

Consider `Cc1cc(-c2nc3c4c(nc(OCC5(CN6CCOCC6)CC5)nc4c2F)N2C[C@H]4CC[C@H](N4)C2[C@H](C)O3)c(C)c(N)c1C1CC1` (some centres unmarked) [Z716], for which the IC50 came to 48.6 nM in series [2] (Homo sapiens, 120 h); 81.8 nM with AGS p-ERK (Homo sapiens); 89.2 nM in series [3] (Homo sapiens, ASPC1, 120 h).

Consider `C[C@@H]1Oc2nc(-c3cc(N)cc4cccc(Cl)c34)c(F)c3nc(OC[C@]45CCCN4CC(F)(F)C5)nc(c23)N2C[C@H]3CC[C@H](N3)[C@@H]12` [Z737, 5-chloro-4-((5S,5aS,6S,9R)-12-(((R)-2,2-difluorotetrahydro-1H-pyrrolizin-7a(5H)-yl)methoxy)-1-fluoro-5-methyl-5a,6,7,8,9,10-hexahydro-5H-4-oxa-3,10a,11,13,14-pentaaza-6,9-methanonaphtho[1,8-ab]hepten-2-yl)naphthalen-2-amine], for which the figures for the IC50 (in series [2]; in the series with AGS p-ERK; in series [3]) were 34 nM, 15.3 nM and 44.2 nM, respectively.

Take “(5S,5aS,6S,9R)-12-((2,6-dimethyltetrahydro-1H-pyrrolizin-7a(5H)-methoxy)-2-(8-ethynyl-6-fluoronaphthalen-1-yl)-1-fluoro-5-methyl-5a,6,7,8,9,10-hexahydro-5H-4-oxa-3,10a,11,13,14-pentaaza-6,9-methanonaphtho[1,8-ab]heptene [Z551]”: the IC50 is 45.4 nM in series [2], 61 nM in the series with AGS p-ERK and 170 nM in series [3].

With `C#Cc1cccc2cccc(-c3nc4c5c(nc(OC[C@@]67CCCN6CCC7=C)nc5c3F)N3C[C@H]5CC[C@H](N5)[C@H]3[C@H](C)O4)c12` (single isomer, unassigned) [Z702], the IC50 is 26.8 nM in series [2], 11.1 nM in the series with AGS p-ERK and 51.9 nM in series [3].

With `C#Cc1c(F)ccc2cccc(-c3nc4c5c(nc(OC[C@]67C[C@@H](F)CN6CCC7=C)nc5c3F)N3C[C@H]5CC[C@H](N5)[C@H]3[C@H](C)O4)c12` [Z689, (5S,5aS,6S,9R)-2-(8-ethynyl-7-fluoronaphthalen-1-yl)-1-fluoro-12-(((6R,7aR)-6-fluoro-1-methylenetetrahydro-1H-pyrrolizin-7a(5H)-yl)methoxy)-5-methyl-5a,6,7,8,9,10-hexahydro-5H-4-oxa-3,10a,11,13,14-pentaaza-6,9-methanonaphtho[1,8-ab]heptene], the IC50 is 19.3 nM in series [2], 6.61 nM in the series on AGS p-ERK and 17.4 nM in series [3].

Regarding `C#Cc1c(F)ccc2cccc(-c3nc4c5c(nc(OC[C@]67CCCN6CC=C7C)nc5c3F)N3C[C@H]5CC[C@H](N5)[C@H]3[C@H](C)O4)c12` [Z749], the IC50 in series [2] (Homo sapiens, 120 h) was 7.13 nM; in the series on AGS p-ERK (Homo sapiens), 1.91 nM; in series [3] (Homo sapiens, ASPC1, 120 h) it was 11.5 nM.

Turning to `C#Cc1cccc2cc(N)cc(-c3nc4c5c(nc(OCC67CC(F)(F)CN6CCC7=C)nc5c3F)N3C[C@H]5CC[C@H](N5)[C@H]3[C@H](C)O4)c12` (some centres unmarked) [Z738], the IC50 in series [2] (Homo sapiens, 120 h) came to 44.2 nM; in the series on AGS p-ERK (Homo sapiens), 12.7 nM; in series [3] (Homo sapiens, ASPC1, 120 h) it was 29.9 nM.

In the case of `C#Cc1cccc2cc(N)cc(-c3nc4c5c(nc(OC[C@@]67CCCN6CCC7=C(F)F)nc5c3F)N3C[C@H]5CC[C@H](N5)[C@H]3[C@H](C)O4)c12` (single isomer, unassigned) [Z960], the IC50 in series [2] (Homo sapiens, 120 h) came out at 3.96 nM; with AGS p-ERK (Homo sapiens), 0.25 nM; in series [3] (Homo sapiens, ASPC1, 120 h), 1.58 nM.
